From ChEMBL document CHEMBL1137512, “Synthesis and evaluation of chloromethyl sulfoxides as a new class of selective irreversible cysteine protease inhibitors” (Bioorg Med Chem, 2007)
Activity calls are given as the source filed them. No cut-off for these calls is given here.

Key:
[1] = Inhibition of papain by colorimetric assay
[2] = Binding affinity to papain at 10 uM by fluorescent binding test

Ki [1] | Activity [2] | Activity [1] | SMILES
142 µM | – | – | CC(C)(C)OC(=O)N[C@@H](Cc1ccccc1)C[S+]([O-])CCl (stereo partly drawn)
485 µM | – | – | CC(C)C[C@@H](C[S+]([O-])CCl)NC(=O)OC(C)(C)C (stereo partly drawn)
1430 µM | – | – | C[C@@H](C[S+]([O-])CCl)NC(=O)OC(C)(C)C (stereo partly drawn)
471 µM | 40% | – | CN(C)c1cccc2c(S(=O)(=O)NCC(=O)NCC[S+]([O-])CCl)cccc12 (stereo not drawn)
543 µM | – | – | CC(C)[C@@H](C[S+]([O-])CCl)NC(=O)OC(C)(C)C (stereo partly drawn)
– | – | inactive | CC(C)(C)OC(=O)NCC[S+]([O-])CCl (stereo not drawn)
3670 µM | – | – | CC(C)(C)OC(=O)N[C@@H](Cc1ccccc1)C(=O)NCC[S+]([O-])CCl (stereo partly drawn)
